# Test results from patent US20220324815A1, “2-PHENOXY-PYRIMIDINE DERIVATIVES AS HERBICIDAL COMPOUNDS” (SYNGENTA CROP PROTECTION AG, priority 2019, published 2022).
# How the values were obtained:
# Assay type in all cases: in vivo
# Settings in all cases: 250 g/ha unless otherwise stated, evaluated after 13 days, five-point scale
# [1] = tested on: Amaranthus retoflexus (AMARE); test: Test 1 glasshouse herbicide test, pre-emergence application (Table B2)
# Procedure, shortened: (§1)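 Pots sown in standard soil; sprayed 1 day (pre-emergence) or 8 days (post-emergence) after sowing at 250 g/ha unless stated, in acetone/water (50:50) with 0.5% Tween 20. Glasshouse 24/16 °C, 14 h light, 65% humidity; damage scored at 13 days on a 1–5 scale (5=81–100%, 1=0–20%).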
# [2] = tested on: Echinochloa crus-galli (ECHCG); test: as above
# Procedure, shortened: as §1
# [3] = tested on: Ipomoea hederacea (IPOHE); test: as above
# Procedure, shortened: as §1
# [4] = tested on: Setaria faberi (SETFA); test: as above
# Procedure, shortened: as §1
# [5] = tested on: Solanum nigrum (SOLNI); test: as above
# Procedure, shortened: as §1
# [6] = tested on: Lolium perenne (LOLPE); test: as above
# Procedure, shortened: as §1
# [7] = tested on: Amaranthus retoflexus (AMARE); test: Test 1 glasshouse herbicide test, post-emergence application (Table B1)
# Procedure, shortened: as §1
# [8] = tested on: Echinochloa crus-galli (ECHCG); test: as above
# Procedure, shortened: as §1
# [9] = tested on: Ipomoea hederacea (IPOHE); test: as above
# Procedure, shortened: as §1
# [10] = tested on: Setaria faberi (SETFA); test: as above
# Procedure, shortened: as §1
# [11] = tested on: Solanum nigrum (SOLNI); test: as above
# Procedure, shortened: as §1
# [12] = tested on: Lolium perenne (LOLPE); test: as above
# Procedure, shortened: as §1
Compound,"% phytotoxicity AMARE, pre-emergence application [1]","% phytotoxicity ECHCG, pre-emergence application [2]","% phytotoxicity IPOHE, pre-emergence application [3]","% phytotoxicity SETFA, pre-emergence application [4]","% phytotoxicity SOLNI, pre-emergence application [5]","% phytotoxicity LOLPE, pre-emergence application [6]","% phytotoxicity AMARE, post-emergence application [7]","% phytotoxicity ECHCG, post-emergence application [8]","% phytotoxicity IPOHE, post-emergence application [9]","% phytotoxicity SETFA, post-emergence application [10]","% phytotoxicity SOLNI, post-emergence application [11]","% phytotoxicity LOLPE, post-emergence application [12]"
[O-][S+](CCCC(F)(F)F)c1c(Cl)cccc1Oc1ncc(Cl)cn1 (stereo not drawn) [Compound A26],5 (5=81 to 100%),5 (5=81 to 100%),5 (5=81 to 100%),5 (5=81 to 100%),5 (5=81 to 100%),5 (5=81 to 100%),5 (5=81 to 100%),5 (5=81 to 100%),5 (5=81 to 100%),5 (5=81 to 100%),5 (5=81 to 100%),5 (5=81 to 100%)
Clc1ccc(CSc2ccccc2Oc2ncc(Cl)cn2)cc1 [Compound A27],5 (5=81 to 100%),4 (4=61 to 80%),1 (1=0 to 20%),4 (4=61 to 80%),2 (2=21 to 40%),1 (1=0 to 20%),5 (5=81 to 100%),2 (2=21 to 40%),2 (2=21 to 40%),2 (2=21 to 40%),3 (3=41 to 60%),1 (1=0 to 20%)
"N#Cc1cccc(Oc2ncc(Cl)cn2)c1SCCCC(F)(F)F [Compound A28, 3-(5-chloropyrimidin-2-yl)oxy-2-(4,4,4-trifluorobutylsulfanyl)benzonitrile]",5 (5=81 to 100%),5 (5=81 to 100%),5 (5=81 to 100%),5 (5=81 to 100%),5 (5=81 to 100%),5 (5=81 to 100%),5 (5=81 to 100%),5 (5=81 to 100%),5 (5=81 to 100%),5 (5=81 to 100%),5 (5=81 to 100%),5 (5=81 to 100%)
"N#Cc1cccc(Oc2ncc(Cl)cn2)c1[S+]([O-])CCCC(F)(F)F (stereo not drawn) [Compound A29, 3-(5-chloropyrimidin-2-yl)oxy-2-(4,4,4-trifluorobutylsulfinyl)benzonitrile]",5 (5=81 to 100%),5 (5=81 to 100%),5 (5=81 to 100%),5 (5=81 to 100%),5 (5=81 to 100%),5 (5=81 to 100%),5 (5=81 to 100%),5 (5=81 to 100%),5 (5=81 to 100%),5 (5=81 to 100%),5 (5=81 to 100%),5 (5=81 to 100%)
"N#Cc1cccc(Oc2ncc(Cl)cn2)c1S(=O)(=O)CCCC(F)(F)F [Compound A30, 3-(5-chloropyrimidin-2-yl)oxy-2-(4,4,4-trifluorobutylsulfonyl)benzonitrile]",5 (5=81 to 100%),5 (5=81 to 100%),5 (5=81 to 100%),5 (5=81 to 100%),5 (5=81 to 100%),5 (5=81 to 100%),5 (5=81 to 100%),5 (5=81 to 100%),4 (4=61 to 80%),5 (5=81 to 100%),5 (5=81 to 100%),5 (5=81 to 100%)
